Peptide text beside a SMILES is read from it. * marks the point of attachment. Cbz = O=C(OCc1ccccc1)*
Tested on: wild-type H99 strain
Experiment: Proteasome inhibitor / SDS sensitivity growth assay
Assay type: cell-based, Cryptococcus neoformans
Conditions: for growth of wild type and complemented strain with SDS and proteasome inhibitor: YPD with 0.025% SDS plus inhibitor
Description: For SDS sensitivity testing, SDS was added to YPD to a final concentration of 0.2% (wt/vol), and 2× serial dilutions were prepared in 96-well plates. Cells of H99, the fbp1Δ mutant, and its complemented strain were added to the wells to a final optical density at 600 nm (OD600) of 0.01. The plates were kept at 30° C., and the OD600 was measured every 24 h. […] Twofold serial dilutions were prepared in 96-well plates. The wild-type H99 strain was added to the well containing proteasome inhibitors (MG132 or […]) and SDS to a final OD600 of 0.01. The fbp1Δ mutant was added to YPD with 0.025% SDS only to a final OD600 of 0.01. The growth of cultures was determined by measuring the OD600 every 24 h.
To test whether SDS sensitivity is regulated by the SCF(Fbp1) E3 ligase function, the effects of proteasome inhibitors on Cryptococcus SDS sensitivity was investigated. Fungal growth rates of the wild-type H99 strain, the fp1Δ mutant, and its complemented strain on YPD medium containing 0.025% SDS were determined in the absence or presence of the proteasome inhibitor MG132 or PS-341. MG132 is a cell-permeative proteasome inhibitor which can reduce the degradation of ubiquitin-conjugated proteins by the 26S complex without affecting its ATPase or isopeptidase activity. PS-341 is a potent and reversible proteasome inhibitor that functions to […]. […] Therefore, without wishing to be bound by theory, certain substrates of Fbp1 may also participate in regulation of cell membrane integrity.

CC(C)C[C@H](NC(=O)[C@H](Cc1ccccc1)NC(=O)c1cnccn1)B(O)O [PS-341]
effect on growth of the wild-type strain or the mutant, inhibitor alone (100 μM PS-341, YPD without SDS): Neither 25 μM MG132 nor 100 μM PS-341 alone affected the growth
growth of wild type and complemented strain with SDS and proteasome inhibitor: significant growth defect

CC(C)C[C@@H](C=O)NC(=O)[C@H](CC(C)C)NC(=O)[C@H](CC(C)C)NC(=O)OCc1ccccc1 [MG132] (Cbz-Leu-Leu-Leu-aldehyde)
effect on growth of the wild-type strain or the mutant, inhibitor alone (25 μM MG132, YPD without SDS): Neither 25 μM MG132 nor 100 μM PS-341 alone affected the growth
growth of wild type and complemented strain with SDS and proteasome inhibitor: significant growth defect
